Test [1] concerns the target T1, human estrogen receptor beta (ERβ) (Homo sapiens, UniProt Q92731).
T1 construct: expressed in transfected cells; host or cells: CHO K1
The test is described as follows: CHO steroid receptor reporter assay, ERβ / rat oxytocin-Luc. In kind it is cell-based. Conditions: ERß. The source says:
(§1) For monitoring both human steroid receptor agonistic as well as antagonistic activity of compounds, Chinese hamster ovary (CHO) K1 cells stably co-transfected with the specific human steroid receptor and its respective reporter construct were used (as previously described).
(§2) For human glucocorticoid receptor (GR)-specific activity CHO-GR B4.8 cells containing both recombinant human GR as well as a reporter construct consisting of the mouse mammary tumor virus (MMTV) promotor and the luciferase reporter gene, were used. Compound was incubated alone (in the agonistic setup) or with 50 nM dexamethasone (in the antagonistic setup) overnight. Hereafter, 200 µl medium was removed and 50 µl luciferine substrate solution from the LucLite luminescence kit (Packard, Meriden, USA) was added. […] Percentage maximal antagonistic efficacy was related to the maximal antagonistic efficacy of reference GR antagonist Org 34116. Similar procedures were followed for the other human steroid receptor assays (for more detailed information see Supportive Information) (SI text).
(§3) Similar procedures were followed for the other human steroid receptor assays containing combinations of human progesterone receptor B (PR-B) and MMTV-Luc, human androgen receptor (AR) and MMTV-Luc, human chimeric glucocorticoid-mineralocorticoid receptor (GGM, Trapp et al. (1994), Neuron 13: 1457) and MMTV-Luc, human estrogen receptor alpha (ERα) and rat oxytocin-Luc (45), and human estrogen receptor beta (ERβ) and rat oxytocin-Luc, respectively.
A general note: In a reporter assay the amount or activity of a reporter protein is the signal.

The target of test [2] is T2, human progesterone receptor B (PR-B) (Homo sapiens, UniProt P06401).
T2 construct: expressed in transfected cells; host or cells: CHO K1
T2 sequence (P06401 1-933): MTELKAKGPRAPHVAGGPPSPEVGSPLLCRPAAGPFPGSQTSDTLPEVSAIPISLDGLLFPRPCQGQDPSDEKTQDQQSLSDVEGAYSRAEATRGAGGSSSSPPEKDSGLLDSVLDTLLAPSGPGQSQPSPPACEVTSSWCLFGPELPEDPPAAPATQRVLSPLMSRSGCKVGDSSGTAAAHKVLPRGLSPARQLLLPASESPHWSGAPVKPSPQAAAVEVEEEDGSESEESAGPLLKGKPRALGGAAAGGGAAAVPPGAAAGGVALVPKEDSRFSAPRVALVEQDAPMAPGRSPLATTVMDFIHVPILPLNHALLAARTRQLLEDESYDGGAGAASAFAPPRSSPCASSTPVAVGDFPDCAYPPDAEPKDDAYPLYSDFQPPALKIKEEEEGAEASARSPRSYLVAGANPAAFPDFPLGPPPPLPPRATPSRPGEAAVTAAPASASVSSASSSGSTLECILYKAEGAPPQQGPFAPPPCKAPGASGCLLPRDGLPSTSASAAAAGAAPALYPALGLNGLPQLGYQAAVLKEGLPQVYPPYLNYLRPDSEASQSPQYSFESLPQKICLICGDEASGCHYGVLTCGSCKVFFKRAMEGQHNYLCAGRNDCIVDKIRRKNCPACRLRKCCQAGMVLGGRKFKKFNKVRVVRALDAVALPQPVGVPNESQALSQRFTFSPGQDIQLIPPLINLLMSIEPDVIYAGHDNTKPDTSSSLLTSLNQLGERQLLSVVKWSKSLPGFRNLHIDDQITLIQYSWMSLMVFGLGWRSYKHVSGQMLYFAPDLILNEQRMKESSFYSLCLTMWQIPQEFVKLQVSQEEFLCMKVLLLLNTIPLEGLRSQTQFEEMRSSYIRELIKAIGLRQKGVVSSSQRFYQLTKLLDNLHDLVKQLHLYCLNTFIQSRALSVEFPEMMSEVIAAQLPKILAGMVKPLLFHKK
Kind of test: CHO steroid receptor reporter assay, PR-B / MMTV-Luc. In kind it is cell-based.
From the text: as §1, §2, §3

In test [3] the target is T3, human chimeric glucocorticoid-mineralocorticoid receptor (GGM) (Homo sapiens, UniProt P04150+P08235, G607S/G671E/L660Y/Q661R/V618L).
T3 construct: glucocorticoid receptor part of the chimera (human NR3C1, P04150); expressed in transfected cells; host or cells: CHO K1
T3 sequence (P04150+P08235 with tags, fused parts or gaps P08235:G607S/P08235:V618L/P08235:L660Y/P08235:Q661R/P08235:G671E): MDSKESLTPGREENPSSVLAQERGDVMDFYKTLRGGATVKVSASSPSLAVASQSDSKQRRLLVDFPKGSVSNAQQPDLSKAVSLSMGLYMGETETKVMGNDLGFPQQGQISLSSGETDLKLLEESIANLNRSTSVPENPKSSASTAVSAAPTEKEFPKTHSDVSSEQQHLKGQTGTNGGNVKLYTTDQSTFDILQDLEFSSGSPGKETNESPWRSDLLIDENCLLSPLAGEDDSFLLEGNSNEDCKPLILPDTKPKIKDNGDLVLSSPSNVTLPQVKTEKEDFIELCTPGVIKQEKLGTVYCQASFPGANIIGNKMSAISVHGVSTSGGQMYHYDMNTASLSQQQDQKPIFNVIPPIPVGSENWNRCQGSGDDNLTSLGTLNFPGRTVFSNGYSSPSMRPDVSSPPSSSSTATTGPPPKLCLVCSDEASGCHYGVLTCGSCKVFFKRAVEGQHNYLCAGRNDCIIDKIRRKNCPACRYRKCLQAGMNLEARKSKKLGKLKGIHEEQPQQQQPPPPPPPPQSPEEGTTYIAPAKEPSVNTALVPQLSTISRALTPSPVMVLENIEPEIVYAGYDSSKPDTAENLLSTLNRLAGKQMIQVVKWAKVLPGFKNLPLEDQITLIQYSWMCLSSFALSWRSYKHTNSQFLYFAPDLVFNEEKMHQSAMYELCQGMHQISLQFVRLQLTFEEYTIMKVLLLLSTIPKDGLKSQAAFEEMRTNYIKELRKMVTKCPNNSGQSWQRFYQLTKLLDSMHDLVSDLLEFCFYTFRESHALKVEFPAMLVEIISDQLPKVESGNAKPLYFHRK
The test is described as follows: CHO steroid receptor reporter assay, MR (GGM) / MMTV-Luc. In kind it is cell-based.
From the text: as §1, §2, §3

Test [4] concerns the target T4, recombinant human glucocorticoid receptor (GR) (Homo sapiens, UniProt P04150).
T4 construct: purchased Panvera P2816
The test is described as follows: Glucocorticoid receptor fluorescence polarisation competitor binding assay. The following applies: fluorescence polarization competitor binding; mean (±SD); read-out: Ki, competitive binding. The text has this: (for more detailed information see Supportive Information) (SI text).

Setting [5] is: read-out: % efficacy (antagonist).

T1 sequence (Q92731 whole entry): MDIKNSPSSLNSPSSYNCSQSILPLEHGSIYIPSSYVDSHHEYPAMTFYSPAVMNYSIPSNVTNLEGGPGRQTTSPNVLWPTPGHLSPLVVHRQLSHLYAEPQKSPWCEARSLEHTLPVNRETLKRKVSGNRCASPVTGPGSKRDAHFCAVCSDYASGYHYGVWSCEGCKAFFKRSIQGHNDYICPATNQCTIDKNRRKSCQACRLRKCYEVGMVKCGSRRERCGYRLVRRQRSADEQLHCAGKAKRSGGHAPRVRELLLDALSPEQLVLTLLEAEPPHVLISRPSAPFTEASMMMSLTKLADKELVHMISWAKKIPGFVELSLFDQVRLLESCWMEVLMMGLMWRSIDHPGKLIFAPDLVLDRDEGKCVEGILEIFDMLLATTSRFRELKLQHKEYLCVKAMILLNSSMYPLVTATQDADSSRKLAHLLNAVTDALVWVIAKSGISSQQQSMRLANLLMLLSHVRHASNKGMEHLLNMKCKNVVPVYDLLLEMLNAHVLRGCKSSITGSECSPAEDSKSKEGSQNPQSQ
T4 sequence (P04150 whole entry): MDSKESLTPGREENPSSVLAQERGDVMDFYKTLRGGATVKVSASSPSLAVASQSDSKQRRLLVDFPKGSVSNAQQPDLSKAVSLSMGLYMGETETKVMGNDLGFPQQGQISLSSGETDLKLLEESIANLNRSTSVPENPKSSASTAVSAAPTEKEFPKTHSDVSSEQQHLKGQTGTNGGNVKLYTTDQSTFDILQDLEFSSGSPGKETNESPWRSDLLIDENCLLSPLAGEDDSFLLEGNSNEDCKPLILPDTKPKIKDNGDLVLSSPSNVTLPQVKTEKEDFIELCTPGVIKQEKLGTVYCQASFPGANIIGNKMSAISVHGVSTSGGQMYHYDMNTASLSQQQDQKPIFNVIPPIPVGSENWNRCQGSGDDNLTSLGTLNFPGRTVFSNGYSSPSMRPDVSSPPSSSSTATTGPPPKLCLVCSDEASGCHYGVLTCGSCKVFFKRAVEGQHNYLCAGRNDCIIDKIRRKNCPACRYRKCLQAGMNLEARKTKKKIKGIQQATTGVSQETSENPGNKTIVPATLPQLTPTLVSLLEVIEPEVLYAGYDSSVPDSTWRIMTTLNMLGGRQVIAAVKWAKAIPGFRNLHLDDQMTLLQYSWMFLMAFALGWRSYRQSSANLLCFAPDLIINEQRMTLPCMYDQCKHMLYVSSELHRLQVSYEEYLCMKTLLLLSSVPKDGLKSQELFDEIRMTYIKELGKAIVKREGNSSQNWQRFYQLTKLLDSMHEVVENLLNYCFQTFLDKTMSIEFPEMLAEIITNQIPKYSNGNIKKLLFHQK

Regarding `Cc1nnsc1C(=O)N[C@H]1CCN2c3ccc(C#N)cc3[C@@H](C)c3ccccc3[C@@H]2C1` [Org 214007-0], the results for the 50% effective concentration (EC50) in test [1] (read-out: EC50 (agonist)), in test [2] (read-out: EC50 (agonist)) and in test [3] (read-out: EC50 (agonist)) were more than 100 nM, more than 100 nM and more than 1000 nM, respectively. Besides, the IC50 in test [1] (read-out: IC50 (antagonist)) was more than 1000 nM; in test [2] (mean (±SD), read-out: IC50 (antagonist)) it was 19.4 nM; in test [3] (read-out: IC50 (antagonist)), more than 1260 nM. Further, the “% agonist potency” value in test [1] (relative to reference compound) was less than 0.01%; in test [2] (relative to reference compound) it was less than 0.03%; in test [3] (relative to reference compound), less than 0.1%. The “% antagonist potency” value in test [1] (relative to reference compound) is less than 0.9%; in test [2] (relative to reference compound, mean (±SD)), 0.46 (±0.2) %; in test [3] (relative to reference compound), less than 1.27%. The Emax in test [2] (setting [5]) was more than 87%; in test [3] (setting [5]), more than 40%. Also, in test [4], the Ki was 2.2 nM.

As a reminder, the EC50 is the concentration needed to bring the measured effect to its halfway point. One may read the IC50 as the concentration needed to halve the response being measured. Broadly, the Ki is the dissociation constant of the complex between target and ligand, obtained from inhibition or displacement.

The values are drawn from PMC3495945, “Org 214007-0: A Novel Non-Steroidal Selective Glucocorticoid Receptor Modulator with Full Anti-Inflammatory Properties and Improved Therapeutic Index” (PLoS ONE, 2012).
